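Results reflect a 48-hour exposure of cells in 96-well plates to compound at five concentrations. The concentration for 50% growth inhibition is given as GI50.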 Activity calls are given as the source filed them. Cut-off read from the data, not from the text of the source: active = GI50 up to about 1.1 µM and inactive = higher.
Legend:
Test in all cases: growth of human tumour cells (NCI), 48 h
CCRF-CEM = tested on: CCRF-CEM
Malme-3M = tested on: Malme-3M
EKVX = tested on: EKVX
NCI-H23 = tested on: NCI-H23
SW-620 = tested on: SW-620
SF-295 = tested on: SF-295
SK-MEL-2 = tested on: SK-MEL-2
SK-MEL-5 = tested on: SK-MEL-5
HCT-15 = tested on: HCT-15
SNB-75 = tested on: SNB-75
IGROV-1 = tested on: IGROV-1
786-0 = tested on: 786-0
NCI-H460 = tested on: NCI-H460
HL-60 = tested on: HL-60
SK-OV-3 = tested on: SK-OV-3
SN12C = tested on: SN12C
MDA-MB-231 = tested on: MDA-MB-231
MCF7 = tested on: MCF7
DU-145 = tested on: DU-145

SMILES | GI50 (CCRF-CEM) | GI50 (Malme-3M) | GI50 (EKVX) | GI50 (NCI-H23) | GI50 (SW-620) | GI50 (SF-295) | GI50 (SK-MEL-2) | GI50 (SK-MEL-5) | GI50 (HCT-15) [µM] | GI50 (SNB-75) | GI50 (IGROV-1) | GI50 (786-0) | GI50 (NCI-H460) | GI50 (HL-60) | GI50 (SK-OV-3) | GI50 (SN12C) | GI50 (MDA-MB-231) | GI50 (MCF7) | GI50 (DU-145)
CN(C)/C=C/C(=O)c1cccc(C(=O)/C=C/N(C)C)n1 | > 100 µM (inactive) | > 100 µM (inactive) | > 100 µM (inactive) | > 100 µM (inactive) | > 100 µM (inactive) | > 100 µM (inactive) | > 100 µM (inactive) | > 100 µM (inactive) | > 100 | > 100 µM (inactive) | > 100 µM (inactive) | > 100 µM (inactive) | > 100 µM (inactive) | > 100 µM (inactive) | > 100 µM (inactive) | > 100 µM (inactive) |  |  | 
N#Cc1ccc(Oc2nc3ccccc3nc2-c2ccccc2)cc1 | > 100 µM (inactive) | > 100 µM (inactive) | > 100 µM (inactive) | > 100 µM (inactive) | > 100 µM (inactive) | > 100 µM (inactive) | > 100 µM (inactive) | > 100 µM (inactive) | > 100 |  | > 100 µM (inactive) | > 100 µM (inactive) | > 100 µM (inactive) | > 100 µM (inactive) | > 100 µM (inactive) | > 100 µM (inactive) | > 100 µM (inactive) | > 100 µM (inactive) | > 100 µM (inactive)
N#Cc1nsnc1-c1nc(-c2nsnc2C#N)nc(-c2nsnc2C#N)n1 |  | > 100 µM (inactive) | > 100 µM (inactive) | > 100 µM (inactive) | > 100 µM (inactive) | > 100 µM (inactive) | > 100 µM (inactive) | > 100 µM (inactive) | > 100 | > 100 µM (inactive) | > 100 µM (inactive) | 61.9 µM (inactive) | > 100 µM (inactive) | 76.6 µM (inactive) |  | > 100 µM (inactive) | > 100 µM (inactive) | > 100 µM (inactive) | > 100 µM (inactive)
C[C@]12CCC(N3CCCC3)CC1=CC[C@@H]1[C@@H]2CC[C@]2(C)C(O)[C@H](n3ccnc3)C[C@@H]12 (stereo partly specified) | 15.7 µM (inactive) |  | > 100 µM (inactive) | 53.6 µM (inactive) | 45.7 µM (inactive) | 35.2 µM (inactive) | 41.9 µM (inactive) | 53 µM (inactive) | 20.9 | > 10 µM (inactive) | 59.8 µM (inactive) | 41.6 µM (inactive) | 42.6 µM (inactive) | 5.58 µM (inactive) |  | 46.5 µM (inactive) | > 100 µM (inactive) | 45 µM (inactive) | > 100 µM (inactive)
CCOC(=O)/C(ON)=C(/CC/C(C(=O)OC)=C(\ON)C(=O)OCC)C(=O)OC | > 100 µM (inactive) | > 100 µM (inactive) | > 100 µM (inactive) | > 100 µM (inactive) | > 100 µM (inactive) | > 100 µM (inactive) | > 100 µM (inactive) | > 100 µM (inactive) | > 100 | > 100 µM (inactive) | > 100 µM (inactive) | > 100 µM (inactive) | > 100 µM (inactive) | > 100 µM (inactive) | > 100 µM (inactive) | > 100 µM (inactive) |  |  | 
COC(=O)N/N=C(/CCC(=O)Nc1ccc(C)c(C)c1)CC(=O)C(C)(C)C | > 100 µM (inactive) | > 100 µM (inactive) | > 100 µM (inactive) | > 100 µM (inactive) | > 100 µM (inactive) | > 100 µM (inactive) | > 100 µM (inactive) | > 100 µM (inactive) | > 100 | > 100 µM (inactive) | > 100 µM (inactive) | > 100 µM (inactive) | > 100 µM (inactive) | > 100 µM (inactive) | > 100 µM (inactive) | > 100 µM (inactive) |  |  | 
ClC/C=C/COC1CCCCO1 (stereo unspecified) | 36.8 µM (inactive) | > 100 µM (inactive) | > 100 µM (inactive) | > 100 µM (inactive) | > 100 µM (inactive) | > 100 µM (inactive) | > 100 µM (inactive) | > 100 µM (inactive) | > 100 | > 100 µM (inactive) | > 100 µM (inactive) | > 100 µM (inactive) | > 100 µM (inactive) | 20.6 µM (inactive) | > 100 µM (inactive) | > 100 µM (inactive) |  |  | 
Cc1cc2c(cc1C)[n+]([O-])c(C(=O)C/C(=N/NC(=S)NN)C(=O)Nc1cccc(C(F)(F)F)c1)c[n+]2[O-] | 56.9 µM (inactive) | > 100 µM (inactive) | > 100 µM (inactive) | > 100 µM (inactive) | > 100 µM (inactive) | > 100 µM (inactive) | > 100 µM (inactive) | > 100 µM (inactive) | > 100 | > 100 µM (inactive) | > 100 µM (inactive) | > 100 µM (inactive) | > 100 µM (inactive) | > 100 µM (inactive) | > 100 µM (inactive) | > 100 µM (inactive) |  |  | 
O=C1C2C=CC(n3[nH]c(=O)n(Cc4ccccc4)c3=O)CC2C(=O)N1c1cccc(Cl)c1 (stereo unspecified) | > 100 µM (inactive) | > 100 µM (inactive) | > 100 µM (inactive) | > 100 µM (inactive) | > 100 µM (inactive) | > 100 µM (inactive) | > 100 µM (inactive) | > 100 µM (inactive) | > 100 | > 100 µM (inactive) | > 100 µM (inactive) | > 100 µM (inactive) | > 100 µM (inactive) | > 100 µM (inactive) | > 100 µM (inactive) | > 100 µM (inactive) |  |  | 
O=C1C(Cl)C(c2cc(Br)cc(Br)c2O)N1n1cnc2ccccc2c1=O (stereo unspecified) | 9.29 µM (inactive) | 19 µM (inactive) | 25.1 µM (inactive) | 23.8 µM (inactive) | 35.8 µM (inactive) | 6.76 µM (inactive) | 21.1 µM (inactive) | 18.8 µM (inactive) | 20.3 | 25.3 µM (inactive) | 23.4 µM (inactive) | 26.2 µM (inactive) | 12.6 µM (inactive) | 16.8 µM (inactive) | 13.6 µM (inactive) | 27.5 µM (inactive) |  |  | 
COc1ccc(/C(C)=N/NC(N)=S)c(OC)c1 | > 100 µM (inactive) | > 100 µM (inactive) | 63.4 µM (inactive) | > 100 µM (inactive) | 43.3 µM (inactive) | > 100 µM (inactive) | > 100 µM (inactive) | > 100 µM (inactive) | > 100 | > 100 µM (inactive) | > 100 µM (inactive) | > 100 µM (inactive) | > 100 µM (inactive) | 51.3 µM (inactive) | > 100 µM (inactive) | > 100 µM (inactive) |  |  | 
N=C1NC(=O)N2CC12 (stereo unspecified) [IMEXON] | 50.8 µM (inactive) | > 100 µM (inactive) | > 100 µM (inactive) | > 100 µM (inactive) | > 100 µM (inactive) | > 100 µM (inactive) | > 100 µM (inactive) | > 100 µM (inactive) | > 100 | > 100 µM (inactive) | > 100 µM (inactive) | > 100 µM (inactive) | > 100 µM (inactive) | 30.5 µM (inactive) | > 100 µM (inactive) | > 100 µM (inactive) |  |  | 

— ChEMBL document CHEMBL1201862, “PubChem BioAssay data set” (2004)
